Assay: clinical
Details: male, human, in vivo, sc, 7.5 mg
Experimental: An 8‐week, open‐label, single‐arm study was performed with the objective of evaluating safety, tolerability, and PK following a single dose of 7.5 mg Gel‐LA in surgically castrated men with advanced PCa. Testosterone levels were not evaluated for this study population.
Men aged 45‐85 years with histologically or cytologically proven adenocarcinoma of the prostate who had undergone bilateral orchiectomy at least 2 months prior to study start were eligible. […]
All patients received a single dose of 7.5 mg LA suspended in the ATRIGEL Delivery System (34% w/w Poly [DL‐lactide‐co‐glycolide] and 66% w/w N‐methyl‐2‐pyrrolidone) as a subcutaneous injection into the upper right or upper left quadrant of the abdomen. […] LA concentrations were determined with solid‐phase extraction and high‐performance liquid chromatography followed by radioimmunoassay. […]
Serum concentrations of LA were summarized as mean, standard deviation (SD), % relative SD, median, minimum, and maximum levels. PK parameters included the maximum observed LA concentration (Cmax), time of maximum serum concentration (Tmax), time of last measured LA concentration in serum (tldc), and area under the LA serum concentration vs time curve (AUC). AUC was determined by linear trapezoidal interpolation, and actual times of blood draws were used for the PK analyses. […]

AUC(0-t): 999 ng·h/mL
SMILES: CCNC(=O)[C@@H]1CCCN1C(=O)[C@H](CCCNC(=N)N)NC(=O)[C@H](CC(C)C)NC(=O)[C@@H](CC(C)C)NC(=O)[C@H](Cc1ccc(O)cc1)NC(=O)[C@H](CO)NC(=O)[C@H](Cc1c[nH]c2ccccc12)NC(=O)[C@H](Cc1c[nH]cn1)NC(=O)[C@@H]1CCC(=O)N1 [Leuprolide Acetate, Leuprolide acetate]

From publication PMC8988824, “Subcutaneous in situ gel delivered leuprolide acetate's consistent and prolonged drug delivery maintains effective testosterone suppression independent of age and weight in men with prostate cancer” (BJUI Compass, 2020)
